Among the data in ChEMBL document CHEMBL5038601, “Carbohydrate-Based NK1R Antagonists with Broad-Spectrum Anticancer Activity” (J Med Chem, 2021) are inhibition values, retold here.

The source made the active and inactive calls. The rule behind the calls is not given here.

The subject of assay [1] is A549. Nature of the assay: Inhibition of glycolysis in human A549 cells assessed as reduction in glucose consumption incubated for 8 hrs by colorimetric-oxidase mediator analysis. It is filed as functional, cell-based.
Assay [2] concerns A549. Description: Inhibition of glycolysis in human A549 cells assessed as reduction in lactate production incubated for 8 hrs by colorimetric-oxidase mediator analysis. The assay is classed as functional, cell-based.

For the compound `O=C(O)C(Cl)Cl`, the inhibition entry in the assay with A549 [1] and in the assay on A549 [2] was “Active” throughout.
